The record followed here is ChEMBL document CHEMBL1124142, “N6-[2-(3,5-dimethoxyphenyl)-2-(2-methylphenyl)ethyl]adenosine and its uronamide derivatives. Novel adenosine agonists with both high affinity and high selectivity for the adenosine A2 receptor” (J Med Chem, 1988).

pKi: −log10 of the molar value.

Assay [1] concerns the target T1, Adenosine A2 receptor (Rattus norvegicus, UniProt P29276+P30543).
The next assay concerns the target T2, Adenosine receptor A1 (Rattus norvegicus, UniProt P25099).
T2 sequence (P25099 whole entry): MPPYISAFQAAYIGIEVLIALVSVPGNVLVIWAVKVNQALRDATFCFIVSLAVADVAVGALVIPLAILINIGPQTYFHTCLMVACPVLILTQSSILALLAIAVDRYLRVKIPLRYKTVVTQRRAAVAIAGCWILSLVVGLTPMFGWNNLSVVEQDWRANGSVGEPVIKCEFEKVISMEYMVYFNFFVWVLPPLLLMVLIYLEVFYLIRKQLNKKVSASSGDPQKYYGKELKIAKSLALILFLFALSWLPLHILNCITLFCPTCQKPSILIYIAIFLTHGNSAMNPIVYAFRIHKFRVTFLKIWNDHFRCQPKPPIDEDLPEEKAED
Nature of the assay: biochemical.

The target in assay [2] is T1, Adenosine A2 receptor. Nature of the assay: Binding affinity at adenosine A2 receptor from rat striatal membranes by [3H]NECA displacement.

Description for Adenosine receptor A1: Binding affinity at adenosine A1 receptor from rat brain membranes by [3H]N6-cyclohexyladenosine displacement.

On Adenosine A2 receptor [1], `COc1cc(OC)cc(C(CNc2ncnc3c2ncn3[C@@H]2O[C@H](CO)[C@@H](O)[C@H]2O)c2ccccc2C)c1` (stereo in doubt; 16) had a Ki of 4.4 nM. Moreover, the pKi on Adenosine receptor A1 is 6.85.

With `COc1cc(OC)cc(C(CNc2ncnc3c2ncn3C2O[C@H](C(=O)NC3CC3)[C@@H](O)[C@H]2O)c2ccccc2C)c1` (some centres not stated), the Ki at Adenosine A2 receptor [2] was determined as 8.7 nM. Besides, at Adenosine receptor A1, the pKi was 6.63. Regarding `OC[C@H]1OC(n2cnc3c(NCC(c4ccccc4)c4cc(Cl)cc(Cl)c4)ncnc32)[C@H](O)[C@@H]1O` (some centres not stated), the pKi on Adenosine receptor A1 is 7.74. `Cc1cccc(C)c1C(CNc1ncnc2c1ncn2C1O[C@H](CO)[C@@H](O)[C@H]1O)c1ccccc1` (some centres not stated) yielded an inhibition constant Ki at Adenosine A2 receptor [1] of 62 nM. Further, the pKi on Adenosine receptor A1 was 6.64. The like results for `COc1cc(OC)cc(C(CNc2ncnc3c2ncn3[C@@H]2O[C@H](CO)[C@@H](O)[C@H]2O)c2ccccc2C)c1` (single isomer, unassigned) were, in that order, 3.1 nM and 6.93. The like results for `COc1cc(OC)cc(C(CNc2ncnc3c2ncn3[C@@H]2O[C@H](CO)[C@@H](O)[C@H]2O)c2ccccc2C)c1` (single isomer, unassigned; (+)) were, in that order, 6.2 nM and 6.73. The like results for `OC[C@H]1OC(n2cnc3c(NCC(c4ccccc4)c4c(Cl)cccc4Cl)ncnc32)[C@H](O)[C@@H]1O` (some centres not stated) were, in that order, 19 nM and 7.21. `OC[C@H]1O[C@@H](n2cnc3c(NCc4cccc5ccccc45)ncnc32)[C@H](O)[C@@H]1O`: the Ki on Adenosine A2 receptor [1] was 9.4 nM. As to `COc1cc(OC)cc(C(CNc2ncnc3c2ncn3C2O[C@H](CO)[C@@H](O)[C@H]2O)c2c(C)cccc2C)c1` (some centres not stated), at Adenosine A2 receptor [1], the Ki was 19.5 nM. This molecule showed a pKi on Adenosine receptor A1 of 6.85. For `CNC(=O)[C@H]1OC(n2cnc3c(NCC(c4cc(OC)cc(OC)c4)c4ccccc4C)ncnc32)[C@H](O)[C@@H]1O` (some centres not stated), the Ki at Adenosine A2 receptor [2] came out at 43 nM. Also, the pKi at Adenosine receptor A1 is 6.00. At Adenosine A2 receptor [1], `Cc1cccc(C(CNc2ncnc3c2ncn3C2O[C@H](CO)[C@@H](O)[C@H]2O)c2cccc(C)c2)c1` (some centres not stated) registered a Ki of 18.8 nM. For the same molecule, at Adenosine receptor A1, the negative-log Ki (pKi) was 8.03.

In turn, `COc1cc(OC)cc(C(CNc2ncnc3c2ncn3C2O[C@H](CO)[C@@H](O)[C@H]2O)c2ccccc2)c1` (some centres not stated) gave a Ki on Adenosine A2 receptor [1] of 6.1 nM. For the same molecule, the pKi on Adenosine receptor A1 was 7.52. Molecule `CCNC(=O)[C@H]1OC(n2cnc3c(NCC(c4cc(OC)cc(OC)c4)c4ccccc4C)ncnc32)[C@H](O)[C@@H]1O` (some centres not stated) had a Ki at Adenosine A2 receptor [2] of 5.6 nM. On Adenosine receptor A1, this molecule had a negative logarithm of the Ki (pKi) of 6.68. In turn, `OC[C@H]1OC(n2cnc3c(NCC(c4cccc(Cl)c4)c4cccc(Cl)c4)ncnc32)[C@H](O)[C@@H]1O` (some centres not stated) gave a Ki at Adenosine A2 receptor [1] of 6 nM. The pKi at Adenosine receptor A1 is 8.59. At Adenosine A2 receptor [1], `Nc1nc(Nc2ccccc2)nc2c1ncn2[C@@H]1O[C@H](CO)[C@@H](O)[C@H]1O` had a pKi of 6.94.
